These results are taken from article PMC5674823, “Cloning, expression and identification of KTX-Sp4, a selective Kv1.3 peptidic blocker from Scorpiops pococki” (Cell & Bioscience, 2017).

Bridge positions count the residues as written; N and C are the ends. Ends that are not written are not given here.

The target in experiment [1] is T1, endogenous Kv1.3 expressed by human Jurkat T cells (Homo sapiens, UniProt P22001).
T1 construct: endogenous Kv1.3 expressed by human Jurkat T cells; endogenous in cells; host or cells: Jurkat E6-1 T cells (ATCC TIB152)
T1 sequence (P22001 whole entry): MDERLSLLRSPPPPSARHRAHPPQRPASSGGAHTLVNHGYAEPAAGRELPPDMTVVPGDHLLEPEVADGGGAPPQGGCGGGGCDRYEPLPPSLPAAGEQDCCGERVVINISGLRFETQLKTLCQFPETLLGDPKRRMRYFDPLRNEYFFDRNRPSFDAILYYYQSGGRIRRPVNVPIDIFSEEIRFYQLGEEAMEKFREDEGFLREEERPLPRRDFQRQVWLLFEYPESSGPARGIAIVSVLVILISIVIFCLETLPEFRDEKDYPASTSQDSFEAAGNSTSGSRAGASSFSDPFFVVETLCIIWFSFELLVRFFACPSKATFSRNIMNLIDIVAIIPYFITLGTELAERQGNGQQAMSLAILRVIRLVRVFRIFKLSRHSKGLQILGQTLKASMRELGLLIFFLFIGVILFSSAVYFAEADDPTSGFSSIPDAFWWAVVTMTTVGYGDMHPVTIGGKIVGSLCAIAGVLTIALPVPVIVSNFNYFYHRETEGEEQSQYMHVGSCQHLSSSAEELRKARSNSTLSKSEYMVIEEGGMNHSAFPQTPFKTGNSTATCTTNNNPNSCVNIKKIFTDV
In words: Whole-cell patch-clamp, endogenous Kv1.3 currents in Jurkat T cells. It is filed as cell-based. The procedure: (§1) Jurkat E6-1 T cells (ATCC TIB152) and HEK293T cells (ATCC ACS4500) were maintained in RPMI medium 1640 (Invitrogen, Carlsbad, CA, USA) and Dulbecco’s modified Eagle’s medium (DMEM) (Life Technologies, GrandIsland, NY, USA), supplemented with 10% fetal bovine serum (Life Technologies), 100 units/ml penicillin, 100 μg/ml streptomycin, respectively. Cells were cultured in a humidified incubator at 37 °C with 5% CO2. The cDNAs encoding mKv1.1, mKv1.1-AEHS/PSGN, hKv1.2 and mKv1.3 [18] were subcloned into the XhoI/BamHI sites of a bicistronic vector, pIRES2-EGFP (Clontech, USA), then transiently transfected into HEK293-T cells using Lipofectamine 2000 (Invitrogen) for electrophysiological experiments.
(§2) Whole-cell patch-clamp recordings were performed using an EPC 9 amplifier (HEKA Elektronik, Lambrecht/Pfalz, Germany) at room temperature (22–24 °C). Pipettes pulled from borosilicate glass (BF 150-86-10; Sutter Instrument Company, Novato, CA, USA) had resistances of 2–4 MΩ when filled with the internal solution. The internal pipette solution for recording Kv currents on DRG neurons contained: 120 mM potassium gluconate, 20 mM KCl, 10 mM EGTA, 10 mM HEPES, 5 mM Na2-ATP, 2 mM MgCl2, 1 mM CaCl2 (pH 7.3 withKOH). […]
A general note: Patch clamp records ionic current or voltage across a cell membrane.

The target of experiment [2] is T2, mKv1.3 (Mus musculus, UniProt P16390).
T2 construct: expressed in transfected cells; host or cells: HEK293T cells, pIRES2-EGFP vector
T2 sequence (P16390 whole entry): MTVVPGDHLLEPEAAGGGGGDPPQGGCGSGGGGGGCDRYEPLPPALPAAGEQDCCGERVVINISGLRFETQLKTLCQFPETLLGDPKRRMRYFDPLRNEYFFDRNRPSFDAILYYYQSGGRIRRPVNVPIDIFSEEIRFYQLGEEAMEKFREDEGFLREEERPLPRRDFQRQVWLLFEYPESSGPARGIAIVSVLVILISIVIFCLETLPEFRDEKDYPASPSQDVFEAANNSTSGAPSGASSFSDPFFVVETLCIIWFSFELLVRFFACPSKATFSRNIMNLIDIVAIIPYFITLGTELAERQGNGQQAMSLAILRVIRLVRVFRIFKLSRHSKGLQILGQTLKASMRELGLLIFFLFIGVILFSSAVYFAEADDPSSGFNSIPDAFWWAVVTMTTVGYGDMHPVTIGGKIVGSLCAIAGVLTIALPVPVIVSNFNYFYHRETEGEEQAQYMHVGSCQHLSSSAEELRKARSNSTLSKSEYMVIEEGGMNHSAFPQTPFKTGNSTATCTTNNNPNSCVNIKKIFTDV
In words: Whole-cell patch-clamp, mKv1.3 heterologously expressed in HEK293T cells. The experiment is classed as cell-based. As for the experimental part:
as §1, §2

Experiment [3] concerns hKv1.2. In words: Whole-cell patch-clamp, Kv1.2 heterologously expressed in HEK293T cells. It is filed as cell-based, human. As to conditions: 1 μM peptide. The procedure: as §1, §2
The target of experiment [4] is T3, mKv1.1-AEHS/PSGN (Mus musculus, UniProt P16388, A352P/E353S/H355G/S357N).
T3 construct: expressed in transfected cells; host or cells: HEK293T cells, pIRES2-EGFP vector
T3 sequence (P16388 whole entry A352P/E353S/H355G/S357N): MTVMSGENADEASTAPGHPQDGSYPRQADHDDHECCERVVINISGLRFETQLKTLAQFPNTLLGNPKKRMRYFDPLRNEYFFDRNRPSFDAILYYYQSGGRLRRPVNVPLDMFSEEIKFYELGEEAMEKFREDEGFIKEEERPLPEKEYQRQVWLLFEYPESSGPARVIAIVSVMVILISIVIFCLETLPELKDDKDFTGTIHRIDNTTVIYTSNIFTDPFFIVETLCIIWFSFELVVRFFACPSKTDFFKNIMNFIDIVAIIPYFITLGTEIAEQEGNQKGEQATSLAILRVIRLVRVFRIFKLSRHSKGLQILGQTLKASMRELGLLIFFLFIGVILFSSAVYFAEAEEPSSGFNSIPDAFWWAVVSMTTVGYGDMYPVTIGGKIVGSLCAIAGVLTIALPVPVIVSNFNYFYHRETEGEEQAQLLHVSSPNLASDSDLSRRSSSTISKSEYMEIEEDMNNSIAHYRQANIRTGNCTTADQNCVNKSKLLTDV
In words: Whole-cell patch-clamp, turret mutant Kv1.1-AEHS/PSGN expressed in HEK293T cells. It is filed as cell-based. As to conditions: four Kv1.1 turret residues replaced by those of Kv1.3, mean ± SE of six experiments, SEM, read-out: IC50 on Kv1.1-AEHS/PGSN mutant channel. The procedure:
as §1, §2

Experiment [5] concerns mKv1.1. In words: Whole-cell patch-clamp, Kv1.1 heterologously expressed in HEK293T cells. It is filed as cell-based, mouse. As to conditions: 1 μM peptide. The procedure:
as §1, §2

Experiment [6] has as its system voltage-gated potassium channels on DRG cells. In words: Whole-cell patch-clamp, voltage-gated K+ currents in acutely isolated DRG cells. The experiment is classed as cell-based, mouse. As to conditions: 1 μM peptide, +50 mV 400 ms pulse from -60 mV. The procedure: Mouse spinal columns were removed and placed in ice-cold HBSS; neurons were acutely dissociated and maintained as described. In brief, laminectomies were performed and bilateral DRG were dissected out. After removal of connective tissues, DRG were transferred to a 1 ml Ca^2+/Mg^2+-free HBSS containing 2 μl saturated NaHCO3, 0.35 mg L-cysteine and 20 U papain (Worthington, Lakewood, NJ, USA), and incubated at 37 °C for 10 min. The suspension of DRG was centrifuged, the supernatant was removed, 1 ml Ca^2+/Mg^2+-free HBSS containing 4 mg collagenase type II and 1.25 mg dispase type II (Worthington) was added and incubated at 37 °C for 10 min. After digestion, neurons were pelleted, suspended in neurobasal medium containing 2% B-27 supplement, 1% L-glutamine, 100 U/ml penicillin plus 100 μg/ml streptomycin, and 50 ng/ml nerve growth factor, plated on a 12 mm coverslip coated with poly-L-lysine (10 μg/ml) and cultured under a humidified atmosphere of 5% CO2/95% air at 37 °C for 18–24 h before use.
Whole-cell patch-clamp recordings were performed using an EPC 9 amplifier (HEKA Elektronik, Lambrecht/Pfalz, Germany) at room temperature (22–24 °C). Pipettes pulled from borosilicate glass (BF 150-86-10; Sutter Instrument Company, Novato, CA, USA) had resistances of 2–4 MΩ when filled with the internal solution. […]

On to “AFPSENPTGGCPLSDNVCSSYCKKNKFGNEGKCHGTICKCSIK (disulfide 11-33, 18-38, 22-40 (inferred)) [KTX-Sp4]”, for which the “Reversibility of suppressive effect on Kv1.3 after washout” value in experiment [1] (Jurkat T cells, bath application, washout) is listed as “partially reversible”. In addition, the IC50 in experiment [1] (whole-cell patch-clamp, +50 mV 400 ms pulse from -60 mV, almost zero cytosolic Ca2+ pipette solution, Hill fit, n = 8, read-out: IC50 of inhibition of Kv1.3 current in Jurkat T cells) was 235 ± 3.36 nM; in experiment [2] (HEK293T cells, steady-state current at end of depolarizing pulse, n = 10, read-out: IC50 on wild-type mKv1.3-mediated steady-state current) it was 24.7 ± 10.8 nM; in experiment [4], 12.1 ± 4.08 nM. The “Blocking activity on Kv1.3, times weaker than that of J123” value in experiment [2] (comparison with J123) is listed as 31 times. The “Reduction of maximum current of Kv1.2 channel” value in experiment [3] was around 7.23%. Besides, the “Reduction of maximum current of Kv1.1 channel” value in experiment [5] is on record as “about 20.85%”. The “Inhibitory effect on voltage-gated K+ currents on DRG cells” value in experiment [6] is “no significant inhibitory effect”.
